# Molecular target: T1, P2X7 receptor (Homo sapiens, UniProt Q99572)
# T1 construct: host or cells: SH-SY5Y
# T1 sequence (Q99572 1-595): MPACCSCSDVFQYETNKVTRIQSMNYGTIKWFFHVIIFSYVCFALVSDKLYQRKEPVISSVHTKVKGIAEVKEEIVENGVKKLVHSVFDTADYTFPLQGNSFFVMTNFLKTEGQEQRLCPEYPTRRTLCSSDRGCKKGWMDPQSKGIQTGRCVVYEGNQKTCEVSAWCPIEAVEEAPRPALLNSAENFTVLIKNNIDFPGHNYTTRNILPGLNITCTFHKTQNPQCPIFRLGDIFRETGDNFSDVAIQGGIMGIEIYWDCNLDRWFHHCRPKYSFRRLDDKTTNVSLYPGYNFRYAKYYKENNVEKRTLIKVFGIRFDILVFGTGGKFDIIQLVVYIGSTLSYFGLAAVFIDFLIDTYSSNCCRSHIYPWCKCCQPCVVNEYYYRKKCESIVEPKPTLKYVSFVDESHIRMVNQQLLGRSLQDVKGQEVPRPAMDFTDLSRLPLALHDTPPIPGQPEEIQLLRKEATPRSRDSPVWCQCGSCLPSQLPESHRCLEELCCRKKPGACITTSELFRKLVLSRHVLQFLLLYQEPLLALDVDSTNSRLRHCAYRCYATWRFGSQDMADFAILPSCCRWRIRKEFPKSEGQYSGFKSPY
# Experiment: P2X7 calcium mobilization assay, high throughput, antagonist activity (Example 4A)
# Type: cell-based
# Conditions: 50% decrease in the fluorescence response of cells exposed to 80 μM 2′(3′)-O-(4-benzoyl-benzoyl)adenosine 5′-triphosphate; Example 4A; read-out: IC50
# Summary of the method: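 100,000 cells/well, plated day -1. Dye 1 h → rinse → compound 1 h, RT → FLIPR^TETRA Ca2+ mobilization. Max RFU minus mean negative control (no agonist); mean agonist-well max as positive control.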
row,Structure (SMILES),IC50 [µM]
1,"CCOC(=O)CN(C)C(=O)c1cn2c(C(=O)NC[C@@H]3CC[C@H]4C[C@@H]3C4(C)C)cccc2n1 [Compound 482, ethyl N-{[5-({[(1S,2R,5S)-6,6-dimethylbicyclo[3.1.1]hept-2-yl]methyl}carbamoyl)imidazo[1,2-a]pyridin-2-yl]carbonyl}-N-methylglycinate]",< 2
2,"CC(C)C[C@H](NC(=O)c1cn2c(C(=O)NC[C@@H]3CC[C@H]4C[C@@H]3C4(C)C)cccc2n1)C(N)=O [Compound 515, 2-N-[(1S)-1-carbamoyl-3-methylbutyl]-5-N-{[(1S,2R,5S)-6,6-dimethylbicyclo [3.1.1]hept-2-yl]methyl} imidazo[1,2-a]pyridine-2,5-dicarboxamide]",< 2
3,"CCOC(=O)C(C)(C)c1cn2c(C(=O)NCC34CC5CC(CC(C5)C3)C4)cccc2n1 [Compound 450, ethyl 2-{5-[(adamantan-1-ylmethyl)carbamoyl]imidazo[1,2-a]pyridin-2-yl}-2-methylpropanoate]",< 2
4,"CC1(C)[C@@H]2CC[C@@H](CNC(=O)c3cccc4nc(CC(=O)N5CCNCC5)cn34)[C@H]1C2 [Compound 555, N-{[(1R,2R,5R)-6,6-dimethylbicyclo[3.1.1]hept-2-yl]methyl}-2-(2-oxo-2-piperazin-1-ylethyl)imidazo[1,2-a]pyridine-5-carboxamide]",< 2
5,"C[C@H]1CNCCN1C(=O)Cc1cn2c(C(=O)NC[C@@H]3CC[C@@H]4C[C@H]3C4(C)C)cccc2n1 [Compound 557, N-{[(1R,2R,5R)-6,6-dimethylbicyclo[3.1.1]hept-2-yl]methyl}-2-{2-[(2S)-2-methylpiperazin-1-yl]-2-oxoethyl}imidazo [1,2-a]pyridine-5-carboxamide]",< 2

# Same assay, conditions: 50% decrease in the fluorescence response of cells exposed to 80 μM of 2′(3′)-O-(4-benzoyl-benzoyl)adenosine 5′-triphosphate; Example 4A; read-out: IC50
row,Structure (SMILES),IC50 [µM]
1,"O=C(NCC12CC3CC(CC(C3)C1)C2)c1cccc2nc(Cn3nnc(-c4cccnc4)n3)cn12 [Compound 813, N-(adamantan-1-ylmethyl)-2-[(5-pyridin-3-yl-2H-tetrazol-2-yl)methyl] imidazo[1,2-a] pyridine-5-carboxamide]",< 2
2,"CCOC(=O)C(Cc1ccccn1)c1cn2c(C(=O)NCC34CC5CC(CC(C5)C3)C4)cccc2n1 (stereo not drawn) [Compound 736, ethyl 2-{5-[(adamantan-1-ylmethyl)carbamoyl]imidazo[1,2-a]pyridin-2-yl}-3-pyridin-2-ylpropanoate]",< 2
3,"CCN(CC)C(=O)CC(C(=O)O)c1cn2c(C(=O)NCC34CC5CC(CC(C5)C3)C4)cccc2n1 (stereo not drawn) [Compound 811, 2-{5-[(adamantan-1-ylmethyl)carbamoyl]imidazo[1,2-a]pyridin-2-yl}-4-(diethylamino)-4-oxobutanoic acid]",< 2
4,"CCN(CC)C1CCN(C(=O)c2cn3c(C(=O)NCC45CC6CC(CC(C6)C4)C5)cccc3n2)CC1 [Compound 674, N-(adamantan-1-ylmethyl)-2-{[4-(diethylamino)piperidin-1-yl]carbonyl}imidazo [1,2-a]pyridine-5-carboxamide]",< 2
5,"CC(C)N(CCCO)C(=O)c1cn2c(C(=O)NCC34CC5CC(CC(C5)C3)C4)cccc2n1 [Compound 695, 5-N-(adamantan-1-ylmethyl)-2-N-(3-hydroxypropyl)-2-N-isopropylimidazol[1,2-a]pyridine-2,5-dicarboxamide]",< 2
6,"O=C(NCC12CC3CC(CC(C3)C1)C2)c1cccc2nc(C(Cc3cccnc3)C(=O)O)cn12 (stereo not drawn) [Compound 730, 2-{5-[(adamantan-1-ylmethyl)carbamoyl]imidazo[1,2-a]pyridin-2-yl}-3-pyridin-3-ylpropanoic acid]",< 2
7,"N[C@@H]1CCCN(C(=O)c2cn3c(C(=O)NCC45CC6CC(CC(C6)C4)C5)cccc3n2)C1 [Compound 724, N-(adamantan-1-ylmethyl)-2-{[(3R)-3-aminopiperidin-1-yl]carbonyl}imidazo[1,2-a]pyridine-5-carboxamide]",< 2
8,"CC(C)CC(CNC(=O)c1cccc2nc(CN3CC[C@@H](N)C3)cn12)c1ccc(C(F)(F)F)cc1 (stereo in doubt) [Compound 763, 2-[(3-aminopyrrolidin-1-yl)methyl]-N-{4-methyl-2-[4-(trifluoromethyl)phenyl]pentyl}imidazo [1,2-a] pyridine-5-carboxamide]",< 2
9,"CCOC(=O)C(Cc1ccc(OC)cc1)c1cn2c(C(=O)NCC34CC5CC(CC(C5)C3)C4)cccc2n1 (stereo not drawn) [Compound 801, ethyl 2-{5-[(adamantan-1-ylmethyl)carbamoyl]imidazo[1,2-a]pyridin-2-yl}-3-(4-methoxyphenyl) propanoate]",< 2

# Same assay, conditions: 50% decrease in the fluorescence response of cells exposed to 80 μM of 2′(3′)-O-(4-benzoyl-benzoyl)adenosine 5′-triphosphate; determined as in Example 4A; read-out: IC50
row,Structure (SMILES),IC50 [µM]
1,"O=C(NCC1(c2ccc(Cl)cc2)CCCCC1)c1cccc2nc(Cn3nnc(CCO)n3)cn12 [Compound 919, N-{[1-(4-chlorophenyl)cyclohexyl]methyl}-2-{[5-(2-hydroxyethyl)-2H-tetrazol-2-yl]methyl}imidazo[1,2-a]pyridine-5-carboxamide]",< 2
2,"CC(O)CNC(=O)Cc1cn2c(C(=O)NCC3(c4ccc(Cl)cc4)CCCCC3)cccc2n1 (stereo not drawn) [Compound 858, N-{[1-(4-chlorophenyl)cyclohexyl]methyl}-2-{2-[(2-hydroxypropyl)amino]-2-oxoethyl} imidazo[1,2-a]pyridine-5-carboxamide]",< 2
3,"N[C@@H]1CCN(Cc2cn3c(C(=O)NCC4(c5ccc(C(F)(F)F)cc5)CCCCC4)cccc3n2)C1 [Compound 822, 2-{[(3R)-3-aminopyrrolidin-1-yl]methyl}-N-({1-[4-(trifluoromethyl)phenyl]cyclohexyl}methyl) imidazo[1,2-a] pyridine-5-carboxamide]",< 2
4,"CCCC(CNC(=O)c1cccc2nc(CC(=O)N[C@@H]3CCCN(C(=O)OC(C)(C)C)C3)cn12)c1ccc(Cl)cc1 (stereo partly drawn) [Compound 924, tert-butyl (3R)-3-{[(5-{[2-(4-chlorophenyl)pentyl]carbamoyl}imidazo [1,2-a]pyridin-2-yl)acetyl]amino} piperidine-1-carboxylate]",< 2
5,"CC(C)CC(CNC(=O)c1cccc2nc(CN(C)CCO)cn12)c1ccc(Cl)cc1 (stereo not drawn) [Compound 943, N-[2-(4-chlorophenyl)-4-methylpentyl]-2-{[(2-hydroxyethyl)(methyl)amino]methyl}imidazo [1,2-a]pyridine-5-carboxamide]",< 2
6,"CC(C)CC(CNC(=O)c1cccc2nc(CC(Cc3ccccc3)C(=O)O)cn12)c1ccccc1 (stereo not drawn) [Compound 1004, 2-benzyl-3-{5-[(4-methyl-2-phenylpentyl)carbamoyl]imidazo[1,2-a]pyridin-2-yl} propanoic acid]",< 2

# Same assay, conditions: P2X7 calcium mobilization, Example 4A; 50% decrease in the fluorescence response of cells exposed to 80 μM of (2′(3′)-O-(4-benzoyl-benzoyl)adenosine 5′-triphosephate); read-out: IC50
row,Structure (SMILES),IC50 [µM]
1,"CC(C)CC(CNC(=O)c1cccc2nc(C(F)(F)F)cn12)c1ccc(C(F)(F)F)cc1 (stereo not drawn) [Compound 1025, N-{4-methyl-2-[4-(trifluoromethyl)phenyl]pentyl}-2-(trifluoromethyl) imidazo [1,2-a]pyridine-5-carboxamide]",< 2

# Same assay, conditions: SH-SY5Y cells; 50% decrease in fluorescence response to 80 μM BzATP; read-out: IC50
row,Structure (SMILES),IC50 [µM]
1,"NC1CN(Cc2cn3c(C(=O)NCC45CC6CC(CC(C6)C4)C5)cccc3n2)C1 [Compound 130, N-(adamantan-1-ylmethyl)-2-[(3-aminoazetidin-1-yl)methyl]imidazo[1,2-a]pyridine-5-carboxamide]",< 2
2,"O=C(Cc1cn2c(C(=O)NCC34CC5CC(CC(C5)C3)C4)cccc2n1)NC1CC1 [Compound 148, N-(adamantan-1-ylmethyl)-2-[2-(cyclopropylamino)-2-oxoethyl]imidazo[1,2-a]pyridine-5-carboxamide]",< 2

# Same assay, conditions: fluorescence response of cells exposed to 80 μM 2′(3′)-O-(4-benzoyl-benzoyl)adenosine 5′-triphosphate; Example 4A; read-out: IC50
row,Structure (SMILES),IC50 [µM]
1,"Cc1cc(-c2cn3c(C(=O)NCC45CC6CC(CC(C6)C4)C5)cccc3n2)n(CC(=O)O)n1 [Compound 347, (5-{5-[(adamantan-1-ylmethyl)carbamoyl]imidazo[1,2-a]pyridin-2-yl}-3-methyl-1H-pyrazol-1-yl)acetic acid]",< 2
2,"CC(C)CNC(=O)Cc1cn2c(C(=O)NCC(CC(C)C)c3ccccc3)cccc2n1 (stereo not drawn) [Compound 223, 2-[2-(isobutylamino)-2-oxoethyl]-N-(4-methyl-2-phenylpentyl) imidazo [1,2-a]pyridine-5-carboxamide]",< 2
3,"NCCc1cn2c(C(=O)NCC34CC5CC(CC(C5)C3)C4)cccc2n1 [Compound 297, N-(adamantan-1-ylmethyl)-2-(2-aminoethyl)imidazo [1,2-a]pyridine-5-carboxamide]",< 2
4,"CC(C)N(CCCO)C(=O)c1cn2c(NC(=O)CC34CC5CC(CC(C5)C3)C4)cccc2n1 [Compound 416, 5-[(adamantan-1-ylacetyl)amino]-N-(3-hydroxypropyl)-N-isopropylimidazo[1,2-a]pyridine-2-carboxamide]",< 2
